Measured values published in the supplement of paper PMC8671470.

tested on: HEL; conditions: 72 h
In short: (§1)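 Fifteen myeloid leukaemia lines in RPMI 1640 were treated for 72 h at 37 °C and 5% CO2 with five tenfold doses from 1 to 10,000 nM, in duplicate. ATP luminescence was normalised to vehicle and to a positive control at 10 µM, then fitted with a four-parameter log-logistic model. The IC50 came from these fits.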

Going from O=C1O/C(=C/Br)CCC1c1cccc2ccccc12 (stereo unspecified) [Bromoenol Lactone] to O=C(O)CCCCC(CCSCc1ccccc1)SCc1ccccc1 (stereo unspecified) [CPI-613], the “IC50 (cell viability)” value rises from 8.39 µM to > 10 µM.

CC(C)c1cc2c(c(O)c1O)[C@@]1(C(=O)O)CCCC(C)(C)[C@@H]1CC2 [Carnosic acid] and CCN(CC)CCCC(C)Nc1ccnc2cc(Cl)ccc12 (stereo unspecified) [Chloroquine] cannot be ordered by “IC50 (cell viability)” value: > 10 µM for the first, > 10 µM for the second.

Compared with Nc1nc(Cl)nc2c1ncn2[C@H]1C[C@H](O)[C@@H](CO)O1 [Cladribine], NCCCC(N)(C(=O)O)C(F)F (stereo unspecified) [Difluoromethylornithine] is higher in “IC50 (cell viability)” value: 0.0335 µM for the first, > 10 µM for the second.

tested on: K-562; conditions: 72 h
In short: as §1

Compared with COc1ccc(S(=O)(=O)N2CCN(S(=O)(=O)c3ccc4c(c3)OCCO4)CC2)cc1 [BML283], O=C1O/C(=C/Br)CCC1c1cccc2ccccc12 (stereo unspecified) [Bromoenol Lactone] is lower in “IC50 (cell viability)” value: > 10 µM for the first, 9.03 µM for the second.

Going from O=c1cc(-c2ccccc2)oc2cc(O)c(O)c(O)c12 [Baicalein] to O=c1oc2c(O)c(O)cc3c(=O)oc4c(O)c(O)cc1c4c23 [Benzoaric Acid], the “IC50 (cell viability)” value rises from 9.24 µM to > 10 µM.

COC(=O)[C@]12CCC(C)(C)C[C@H]1[C@H]1C(=O)C=C3[C@@]4(C)C=C(C#N)C(=O)C(C)(C)[C@@H]4CC[C@@]3(C)[C@]1(C)CC2 [Bardoxolone methyl] and CC(C)c1cc2c(c(O)c1O)[C@@]1(C(=O)O)CCCC(C)(C)[C@@H]1CC2 [Carnosic acid] cannot be ordered by “IC50 (cell viability)” value: > 10 µM for the first, > 10 µM for the second.

Going from Cc1c(-c2ccc(-c3ccccc3F)cc2)nc2ccc(F)cc2c1C(=O)O [Brequinar] to O=C(O)CCCCC(CCSCc1ccccc1)SCc1ccccc1 (stereo unspecified) [CPI-613], the “IC50 (cell viability)” value rises from 8.59 µM to > 10 µM.

Compared with CCN(CC)CCCC(C)Nc1ccnc2cc(Cl)ccc12 (stereo unspecified) [Chloroquine], Nc1nc(Cl)nc2c1ncn2[C@H]1C[C@H](O)[C@@H](CO)O1 [Cladribine] is lower in “IC50 (cell viability)” value: > 10 µM for the first, 0.219 µM for the second.

NCCCC(N)(C(=O)O)C(F)F (stereo unspecified) [Difluoromethylornithine] was tested, and the “IC50 (cell viability)” value was > 10 µM.

tested on: ML-2; conditions: 72 h
In short: as §1

COc1ccc(S(=O)(=O)N2CCN(S(=O)(=O)c3ccc4c(c3)OCCO4)CC2)cc1 [BML283] and O=C1O/C(=C/Br)CCC1c1cccc2ccccc12 (stereo unspecified) [Bromoenol Lactone] cannot be ordered by “IC50 (cell viability)” value: > 10 µM for the first, > 10 µM for the second.

Going from O=c1cc(-c2ccccc2)oc2cc(O)c(O)c(O)c12 [Baicalein] to O=c1oc2c(O)c(O)cc3c(=O)oc4c(O)c(O)cc1c4c23 [Benzoaric Acid], the “IC50 (cell viability)” value rises from 8.18 µM to > 10 µM.

Going from COC(=O)[C@]12CCC(C)(C)C[C@H]1[C@H]1C(=O)C=C3[C@@]4(C)C=C(C#N)C(=O)C(C)(C)[C@@H]4CC[C@@]3(C)[C@]1(C)CC2 [Bardoxolone methyl] to CC(C)c1cc2c(c(O)c1O)[C@@]1(C(=O)O)CCCC(C)(C)[C@@H]1CC2 [Carnosic acid], the “IC50 (cell viability)” value rises from 1.64 µM to > 10 µM.

Going from Cc1c(-c2ccc(-c3ccccc3F)cc2)nc2ccc(F)cc2c1C(=O)O [Brequinar] to O=C(O)CCCCC(CCSCc1ccccc1)SCc1ccccc1 (stereo unspecified) [CPI-613], the “IC50 (cell viability)” value rises from 8.46 µM to > 10 µM.

First: CCN(CC)CCCC(C)Nc1ccnc2cc(Cl)ccc12 (stereo unspecified) [Chloroquine]
Second: Nc1nc(Cl)nc2c1ncn2[C@H]1C[C@H](O)[C@@H](CO)O1 [Cladribine]
The “IC50 (cell viability)” value of the first is higher: > 10 µM for the first, 0.238 µM for the second.

NCCCC(N)(C(=O)O)C(F)F (stereo unspecified) [Difluoromethylornithine] was tested, and the “IC50 (cell viability)” value was > 10 µM.

tested on: NOMO-1; conditions: 72 h
In short: as §1

Going from COc1ccc(S(=O)(=O)N2CCN(S(=O)(=O)c3ccc4c(c3)OCCO4)CC2)cc1 [BML283] to O=C1O/C(=C/Br)CCC1c1cccc2ccccc12 (stereo unspecified) [Bromoenol Lactone], the “IC50 (cell viability)” value falls from > 10 µM to 3.55 µM.

O=c1cc(-c2ccccc2)oc2cc(O)c(O)c(O)c12 [Baicalein] and O=c1oc2c(O)c(O)cc3c(=O)oc4c(O)c(O)cc1c4c23 [Benzoaric Acid] cannot be ordered by “IC50 (cell viability)” value: > 10 µM for the first, > 10 µM for the second.

COC(=O)[C@]12CCC(C)(C)C[C@H]1[C@H]1C(=O)C=C3[C@@]4(C)C=C(C#N)C(=O)C(C)(C)[C@@H]4CC[C@@]3(C)[C@]1(C)CC2 [Bardoxolone methyl] and CC(C)c1cc2c(c(O)c1O)[C@@]1(C(=O)O)CCCC(C)(C)[C@@H]1CC2 [Carnosic acid] cannot be ordered by “IC50 (cell viability)” value: > 10 µM for the first, > 10 µM for the second.

Cc1c(-c2ccc(-c3ccccc3F)cc2)nc2ccc(F)cc2c1C(=O)O [Brequinar] and O=C(O)CCCCC(CCSCc1ccccc1)SCc1ccccc1 (stereo unspecified) [CPI-613] cannot be ordered by “IC50 (cell viability)” value: > 10 µM for the first, > 10 µM for the second.

Going from CCN(CC)CCCC(C)Nc1ccnc2cc(Cl)ccc12 (stereo unspecified) [Chloroquine] to Nc1nc(Cl)nc2c1ncn2[C@H]1C[C@H](O)[C@@H](CO)O1 [Cladribine], the “IC50 (cell viability)” value falls from > 10 µM to 0.0529 µM.

For NCCCC(N)(C(=O)O)C(F)F (stereo unspecified) [Difluoromethylornithine], the “IC50 (cell viability)” value was > 10 µM.

tested on: THP-1; conditions: 72 h
In short: as §1

Compared with COc1ccc(S(=O)(=O)N2CCN(S(=O)(=O)c3ccc4c(c3)OCCO4)CC2)cc1 [BML283], O=C1O/C(=C/Br)CCC1c1cccc2ccccc12 (stereo unspecified) [Bromoenol Lactone] is lower in “IC50 (cell viability)” value: > 10 µM for the first, 4.53 µM for the second.

O=c1cc(-c2ccccc2)oc2cc(O)c(O)c(O)c12 [Baicalein] and O=c1oc2c(O)c(O)cc3c(=O)oc4c(O)c(O)cc1c4c23 [Benzoaric Acid] cannot be ordered by “IC50 (cell viability)” value: > 10 µM for the first, > 10 µM for the second.

Compared with COC(=O)[C@]12CCC(C)(C)C[C@H]1[C@H]1C(=O)C=C3[C@@]4(C)C=C(C#N)C(=O)C(C)(C)[C@@H]4CC[C@@]3(C)[C@]1(C)CC2 [Bardoxolone methyl], CC(C)c1cc2c(c(O)c1O)[C@@]1(C(=O)O)CCCC(C)(C)[C@@H]1CC2 [Carnosic acid] is higher in “IC50 (cell viability)” value: 7.05 µM for the first, > 10 µM for the second.

Cc1c(-c2ccc(-c3ccccc3F)cc2)nc2ccc(F)cc2c1C(=O)O [Brequinar] and O=C(O)CCCCC(CCSCc1ccccc1)SCc1ccccc1 (stereo unspecified) [CPI-613] cannot be ordered by “IC50 (cell viability)” value: > 10 µM for the first, > 10 µM for the second.

Going from CCN(CC)CCCC(C)Nc1ccnc2cc(Cl)ccc12 (stereo unspecified) [Chloroquine] to Nc1nc(Cl)nc2c1ncn2[C@H]1C[C@H](O)[C@@H](CO)O1 [Cladribine], the “IC50 (cell viability)” value falls from > 10 µM to 0.358 µM.

With NCCCC(N)(C(=O)O)C(F)F (stereo unspecified) [Difluoromethylornithine] the “IC50 (cell viability)” value was > 10 µM.

tested on: LAMA-84; conditions: 72 h
In short: as §1

COc1ccc(S(=O)(=O)N2CCN(S(=O)(=O)c3ccc4c(c3)OCCO4)CC2)cc1 [BML283] and O=C1O/C(=C/Br)CCC1c1cccc2ccccc12 (stereo unspecified) [Bromoenol Lactone] cannot be ordered by “IC50 (cell viability)” value: > 10 µM for the first, > 10 µM for the second.

O=c1cc(-c2ccccc2)oc2cc(O)c(O)c(O)c12 [Baicalein] and O=c1oc2c(O)c(O)cc3c(=O)oc4c(O)c(O)cc1c4c23 [Benzoaric Acid] cannot be ordered by “IC50 (cell viability)” value: > 10 µM for the first, > 10 µM for the second.

COC(=O)[C@]12CCC(C)(C)C[C@H]1[C@H]1C(=O)C=C3[C@@]4(C)C=C(C#N)C(=O)C(C)(C)[C@@H]4CC[C@@]3(C)[C@]1(C)CC2 [Bardoxolone methyl] and CC(C)c1cc2c(c(O)c1O)[C@@]1(C(=O)O)CCCC(C)(C)[C@@H]1CC2 [Carnosic acid] cannot be ordered by “IC50 (cell viability)” value: > 10 µM for the first, > 10 µM for the second.

First: Cc1c(-c2ccc(-c3ccccc3F)cc2)nc2ccc(F)cc2c1C(=O)O [Brequinar]
Second: O=C(O)CCCCC(CCSCc1ccccc1)SCc1ccccc1 (stereo unspecified) [CPI-613]
The “IC50 (cell viability)” value of the first is lower: 9.69 µM for the first, > 10 µM for the second.

Compared with CCN(CC)CCCC(C)Nc1ccnc2cc(Cl)ccc12 (stereo unspecified) [Chloroquine], Nc1nc(Cl)nc2c1ncn2[C@H]1C[C@H](O)[C@@H](CO)O1 [Cladribine] is lower in “IC50 (cell viability)” value: > 10 µM for the first, 0.0992 µM for the second.

In the case of NCCCC(N)(C(=O)O)C(F)F (stereo unspecified) [Difluoromethylornithine], the “IC50 (cell viability)” value is reported as > 10 µM.
